Publication PMC10945555, “Improving Activity of New Arylurea Agents against Multidrug-Resistant and Biofilm-Producing Staphylococcus epidermidis” (ACS Medicinal Chemistry Letters, 2024)
Values after ≈ are worked out from the molar mass of the structure shown.

Key:
[1] = tested on: biofilm-producing Staphylococcus epidermidis strains; test: Biofilm eradication (MBEC Assay Kit); type: cell-based
H9c2 cells = test: Cytotoxicity, MTT assay, cardiomyocytes; type: cell-based; conditions: Rattus norvegicus, 24 h, n = 3
How it was run: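 Rat H9c2 cardiomyocytes (DMEM) and human BJ fibroblasts (EMEM), both with 10% serum, were exposed to compound for 24 h at 37°C. MTT (5 mg/mL) was then added for 3 h and DMSO-dissolved formazan read at 570 nm as percent of untreated control. IC50 came from non-linear regression over three experiments.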

[2] = tested on: biofilm-producing Staphylococcus epidermidis strains; test: Inhibition of biofilm formation (MBIC, resazurin); type: cell-based
Description: After 24 hours incubation each well of
concentration of 4 mg/mL was added. […]

horse red blood cells = test: Hemolytic activity assay
Description: 2.3.3 Hemolytic activity assay
The hemolytic properties of tested compound were evaluated according to previously reported procedure.6 Defibrinated horse red blood cells purchased from Thermo Fisher Scientific (Germany) were washed with PBS (3000 rpm, 10 min at 4 °C) for three times followed by PBS dilution to obtain a 8% suspension. Then, 100 μL of the resulting suspensions […]
were treated with 100 μL of tested compound at the final concentration of 200 μM, and incubated at 37 °C for 1 h. Triton X-100 (2%) and PBS were used as positive and negative controls, respectively. After centrifugation at 3000 rpm for 3 min, 100 μL of the supernatants were transferred to a 96 well microtiter plate and the hemoglobin release was determined in a SpectraMax iD3 reader (Molecular Devices) by absorption at 540 nm. […]

[3] = S. epidermidis ATCC 35984 (Table S4)

## O=C(Nc1cccc(Cl)c1)NC1CCN(CCC(Oc2ccc(C(F)(F)F)cc2)c2cccs2)CC1 (stereo not drawn) [Compound 25]
[1]; [3]
  MBEC: 7.8 µg/mL
[1]; Table S4 strains
  MBEC50: 31.25 µg/mL
  MBEC90: 31.25 µg/mL
[1]; clinical strain 1 (Table S4)
  MBEC: 31.25 µg/mL
[1]; clinical strain 2 (Table S4)
  MBEC: 31.25 µg/mL
[1]; clinical strain 3 (Table S4)
  MBEC: 31.25 µg/mL
[1]; clinical strain 4 (Table S4)
  MBEC: 31.25 µg/mL
[1]; clinical strain 6 (Table S4)
  MBEC: 15.6 µg/mL
[1]; clinical strain 7 (Table S4)
  MBEC: 31.25 µg/mL
[1]; clinical strain 8 (Table S4)
  MBEC: 7.8 µg/mL
[1]; clinical strain 9 (Table S4)
  MBEC: 31.25 µg/mL
[1]; clinical strain 11 (Table S4)
  MBEC: 31.25 µg/mL
[1]; clinical strain 12 (Table S4)
  MBEC: 31.25 µg/mL
[1]; clinical strain 13 (Table S4)
  MBEC: 3.9 µg/mL
[1]; clinical strain 15 (Table S4)
  MBEC: 31.25 µg/mL
[1]; clinical strain 16 (Table S4)
  MBEC: 31.25 µg/mL
[1]; clinical strain 17 (Table S4)
  MBEC: 15.6 µg/mL
[1]; clinical strain 19 (Table S4)
  MBEC: 15.6 µg/mL
[1]; clinical strain 21 (Table S4)
  MBEC: 31.25 µg/mL
[1]; clinical strain 22 (Table S4)
  MBEC: 31.25 µg/mL
[1]; clinical strain 23 (Table S4)
  MBEC: 7.8 µg/mL
[1]; clinical strain 25 (Table S4)
  MBEC: 7.8 µg/mL
[1]; clinical strain 26 (Table S4)
  MBEC: 31.25 µg/mL
[1]; clinical strain 27 (Table S4)
  MBEC: 31.25 µg/mL
[1]; clinical strain 28 (Table S4)
  MBEC: 31.25 µg/mL
[1]; clinical strain 29 (Table S4)
  MBEC: 31.25 µg/mL
[1]; clinical strain 30 (Table S4)
  MBEC: 3.9 µg/mL
[1]; clinical strain 33 (Table S4)
  MBEC: 31.25 µg/mL
[1]; clinical strain 35 (Table S4)
  MBEC: 31.25 µg/mL
[1]; clinical strain 36 (Table S4)
  MBEC: 31.25 µg/mL
[1]; clinical strain 37 (Table S4)
  MBEC: 31.25 µg/mL
[1]; clinical strain 39 (Table S4)
  MBEC: 3.9 µg/mL
[1]; clinical strain 40 (Table S4)
  MBEC: 31.25 µg/mL
[1]; clinical strain 41 (Table S4)
  MBEC: 31.25 µg/mL
[1]; clinical strain 42 (Table S4)
  MBEC: 31.25 µg/mL
[1]; clinical strain 43 (Table S4)
  MBEC: 31.25 µg/mL
[1]; clinical strain 44 (Table S4)
  MBEC: 15.6 µg/mL
[1]; clinical strain 45 (Table S4)
  MBEC: 31.25 µg/mL
[1]; clinical strain 46 (Table S4)
  MBEC: 31.25 µg/mL
[1]; clinical strain 47 (Table S4)
  MBEC: 15.6 µg/mL
[1]; clinical strain 49 (Table S4)
  MBEC: 15.6 µg/mL
[1]; clinical strain 51 (Table S4)
  MBEC: 31.25 µg/mL
[1]; clinical strain 55 (Table S4)
  MBEC: 31.25 µg/mL
[1]; clinical strain 58 (Table S4)
  MBEC: 31.25 µg/mL
[1]; clinical strain 59 (Table S4)
  MBEC: 31.25 µg/mL
[1]; clinical strain 65 (Table S4)
  MBEC: 31.25 µg/mL
[1]; clinical strain 66 (Table S4)
  MBEC: 15.6 µg/mL
[1]; clinical strain 67 (Table S4)
  MBEC: 31.25 µg/mL
[1]; clinical strain 70 (Table S4)
  MBEC: 31.25 µg/mL
[1]; clinical strain 73 (Table S4)
  MBEC: 7.8 µg/mL
[1]; clinical strain 74 (Table S4)
  MBEC: 15.6 µg/mL
[1]; clinical strain 75 (Table S4)
  MBEC: 31.25 µg/mL
[1]; clinical strain 78 (Table S4)
  MBEC: 7.8 µg/mL
[1]; clinical strain 79 (Table S4)
  MBEC: 7.8 µg/mL
H9c2 cells
  IC50: 26.9 µg/mL (≈ 50 µM)
[2]; [3]
  MBIC: 7.8 µg/mL
[2]; Table S4 strains
  MBIC50: 15.6 µg/mL
  MBIC90: 31.25 µg/mL
[2]; clinical strain 1 (Table S4)
  MBIC: 15.6 µg/mL
[2]; clinical strain 2 (Table S4)
  MBIC: 31.25 µg/mL
[2]; clinical strain 3 (Table S4)
  MBIC: 31.25 µg/mL
[2]; clinical strain 4 (Table S4)
  MBIC: 31.25 µg/mL
[2]; clinical strain 5 (Table S4)
  MBIC: 15.6 µg/mL
[2]; clinical strain 6 (Table S4)
  MBIC: 15.6 µg/mL
[2]; clinical strain 8 (Table S4)
  MBIC: 3.9 µg/mL
[2]; clinical strain 9 (Table S4)
  MBIC: 31.25 µg/mL
[2]; clinical strain 11 (Table S4)
  MBIC: 31.25 µg/mL
[2]; clinical strain 12 (Table S4)
  MBIC: 31.25 µg/mL
[2]; clinical strain 13 (Table S4)
  MBIC: 1.6 µg/mL
[2]; clinical strain 15 (Table S4)
  MBIC: 31.25 µg/mL
[2]; clinical strain 16 (Table S4)
  MBIC: 15.6 µg/mL
[2]; clinical strain 17 (Table S4)
  MBIC: 15.6 µg/mL
[2]; clinical strain 19 (Table S4)
  MBIC: 15.6 µg/mL
[2]; clinical strain 21 (Table S4)
  MBIC: 31.25 µg/mL
[2]; clinical strain 22 (Table S4)
  MBIC: 31.25 µg/mL
[2]; clinical strain 23 (Table S4)
  MBIC: 3.9 µg/mL
[2]; clinical strain 25 (Table S4, Figure 2)
  MBIC: 7.8 µg/mL
[2]; clinical strain 26 (Table S4)
  MBIC: 31.25 µg/mL
[2]; clinical strain 27 (Table S4)
  MBIC: 31.25 µg/mL
[2]; clinical strain 28 (Table S4)
  MBIC: 15.6 µg/mL
[2]; clinical strain 29 (Table S4)
  MBIC: 15.6 µg/mL
[2]; clinical strain 30 (Table S4)
  MBIC: 1.6 µg/mL
[2]; clinical strain 33 (Table S4)
  MBIC: 31.25 µg/mL
[2]; clinical strain 35 (Table S4)
  MBIC: 31.25 µg/mL
[2]; clinical strain 36 (Table S4)
  MBIC: 15.6 µg/mL
[2]; clinical strain 37 (Table S4)
  MBIC: 31.25 µg/mL
[2]; clinical strain 39 (Table S4)
  MBIC: 1.6 µg/mL
[2]; clinical strain 40 (Table S4)
  MBIC: 15.6 µg/mL
[2]; clinical strain 41 (Table S4)
  MBIC: 31.25 µg/mL
[2]; clinical strain 42 (Table S4)
  MBIC: 31.25 µg/mL
[2]; clinical strain 43 (Table S4)
  MBIC: 15.6 µg/mL
[2]; clinical strain 44 (Table S4)
  MBIC: 15.6 µg/mL
[2]; clinical strain 45 (Table S4)
  MBIC: 31.25 µg/mL
[2]; clinical strain 46 (Table S4)
  MBIC: 31.25 µg/mL
[2]; clinical strain 47 (Table S4)
  MBIC: 15.6 µg/mL
[2]; clinical strain 49 (Table S4)
  MBIC: 15.6 µg/mL
[2]; clinical strain 51 (Table S4)
  MBIC: 31.25 µg/mL
[2]; clinical strain 55 (Table S4)
  MBIC: 31.25 µg/mL
[2]; clinical strain 58 (Table S4)
  MBIC: 31.25 µg/mL
[2]; clinical strain 59 (Table S4)
  MBIC: 31.25 µg/mL
[2]; clinical strain 65 (Table S4)
  MBIC: 31.25 µg/mL
[2]; clinical strain 66 (Table S4)
  MBIC: 15.6 µg/mL
[2]; clinical strain 67 (Table S4)
  MBIC: 31.25 µg/mL
[2]; clinical strain 70 (Table S4)
  MBIC: 31.25 µg/mL
[2]; clinical strain 73 (Table S4)
  MBIC: 7.8 µg/mL
[2]; clinical strain 74 (Table S4)
  MBIC: 15.6 µg/mL
[2]; clinical strain 75 (Table S4)
  MBIC: 15.6 µg/mL
[2]; clinical strain 78 (Table S4)
  MBIC: 7.8 µg/mL
[2]; clinical strain 79 (Table S4)
  MBIC: 7.8 µg/mL
Horse red blood cells; 200 μM, 1 h, n = 3
  %hem (hemolytic activity): 0.54%
Horse red blood cells; concentrations up to 200 μM
  lysis of erythrocytes: None of them caused lysis of erythrocytes
